Reference: US20250179066A1, “ZWITTERIONIC ANTIBACTERIAL COMPOUNDS” (Hoffmann-La Roche Inc., priority 2022, published 2025)

These molecules were tested on Acinetobacter baumannii ATCC17961 (assay: Antimicrobial susceptibility testing: 90% growth inhibitory concentration (IC90) determination). Details: 90% growth inhibitory concentration against Acinetobacter baumannii ATCC17961, Iso-Sensitest broth, OD 600 nm over 16 h; read-out: ATCC 17961 IC90.
Format: cell-based
How it was run: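 Twofold serial dilutions (e.g. 10 to 0.0195 μM final) in Iso-Sensitest broth inoculated at ~5×10^5 CFU/mL, incubated at 35±2° C. OD600 read every minute for 16 h; IC90 is the concentration inhibiting 90% of growth during logarithmic phase.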

Point of comparison: “cis-2-[4-[4-[4-[[5-[1-(4-Amino-2-fluoro-phenyl)-3-(difluoromethyl) pyrazol-4-yl]-1-methyl-imidazole-2-carbonyl]amino]-2-chloro-benzoyl]piperazine-1-carbonyl]-1-(azetidin-3-ylmethyl)piperidin-1-ium-1-yl]acetic Acid;2,2,2-trifluoroacetate [Example 128]”, IC90 358 nM. Against it:
- Cn1c(-c2cn(-c3ccc4c(ccn4CC(N)=O)n3)nc2C(F)(F)F)cnc1C(=O)Nc1ccc(C(=O)N2CCN(C(=O)C3CC[N+](CC(=O)O)(CC4CNC4)CC3)CC2)c(Cl)c1 (stereo not drawn) [Example 199, cis-2-[4-[4-[4-[[5-[1-[1-(2-amino-2-keto-ethyl)pyrrolo[3,2-b]pyridin-5-yl]-3-(trifluoromethyl)pyrazol-4-yl]-1-methyl-imidazole-2-carbonyl]amino]-2-chloro-benzoyl]piperazine-1-carbonyl]-1-(azetidin-3-ylmethyl)piperidin-1-ium-1-yl]acetic acid. 1:1 2,2,2-trifluoroacetate] — within 1.5-fold, 308 nM

Same assay, conditions: Acinetobacter baumannii, ATCC17961, 16 h, 90% growth inhibitory concentration against Acinetobacter baumannii ATCC17961, Iso-Sensitest broth, OD 600 nm over 16 h; read-out: ATCC 17961 IC90

Point of comparison: `Cn1c(-c2cn(-c3ccc4c(ccn4CCO)n3)nc2C(F)(F)F)cnc1C(=O)Nc1ccc(C(=O)N2CCN(C(=O)[C@H]3CC[N@+](CC(=O)O)(CC4CNC4)CC3)CC2)c(Cl)c1` [Example 198, cis-2-[1-(azetidin-3-ylmethyl)-4-[4-[2-chloro-4-[[5-[1-[1-(2-hydroxyethyl)pyrrolo[3,2-b]pyridin-5-yl]-3-(trifluoromethyl)pyrazol-4-yl]-1-methyl-imidazole-2-carbonyl]amino]benzoyl]piperazine-1-carbonyl]piperidin-1-ium-1-yl]acetic acid. 1:1 2,2,2-trifluoroacetate], IC90 370 nM. Against it:
- Cn1c(-c2cn(-c3ccc(N(CCN)CCN)cn3)nc2C(F)(F)F)cnc1C(=O)Nc1ccc(C(=O)N2CCN(C(=O)[C@H]3CC[N@+](CC(=O)O)(CC4CNC4)CC3)CC2)c(Cl)c1 [Example 196, cis-2-[1-(azetidin-3-ylmethyl)-4-[4-[4-[[5-[1-[5-[bis(2-aminoethyl)amino]-2-pyridyl]-3-(trifluoromethyl)pyrazol-4-yl]-1-methyl-imidazole-2-carbonyl]amino]-2-chloro-benzoyl]piperazine-1-carbonyl]piperidin-1-ium-1-yl]acetic acid;formic acid;formate] — 2-fold lower, 185 nM
- Cn1c(-c2cn(-c3ccc4c(ccn4CC#N)n3)nc2C(F)(F)F)cnc1C(=O)Nc1ccc(C(=O)N2CCN(C(=O)[C@H]3CC[N@+](CC(=O)O)(CC4CNC4)CC3)CC2)c(Cl)c1 [Example 197, cis-2-[1-(azetidin-3-ylmethyl)-4-[4-[2-chloro-4-[[5-[1-[1-(cyanomethyl)pyrrolo[3,2-b]pyridin-5-yl]-3-(trifluoromethyl)pyrazol-4-yl]-1-methyl-imidazole-2-carbonyl]amino]benzoyl]piperazine-1-carbonyl]piperidin-1-ium-1-yl]acetic acid. 1:1 2,2,2-trifluoroacetate] — 2.2-fold lower, 171 nM
- Cn1c(-c2cn(-c3cc4cc[nH]c4cn3)nc2C(F)(F)F)cnc1C(=O)Nc1ccc(C(=O)N2CCN(C(=O)[C@H]3CC[N@+](CC(=O)O)(CC4CNC4)CC3)CC2)c(Cl)c1 [Example 200, cis-2-[1-(azetidin-3-ylmethyl)-4-[4-[2-chloro-4-[[1-methyl-5-[1-(1H-pyrrolo[2,3-c]pyridin-5-yl)-3-(trifluoromethyl)pyrazol-4-yl]imidazole-2-carbonyl]amino]benzoyl]piperazine-1-carbonyl]piperidin-1-ium-1-yl]acetic acid. 1:1 2,2,2-trifluoroacetate] — within 1.5-fold, 400 nM
- Cn1c(-c2cn(-c3ccc(NCCN)cn3)nc2C(F)(F)F)cnc1C(=O)Nc1ccc(C(=O)N2CCN(C(=O)C3CC[N+](C)(CC(=O)[O-])CC3)CC2)c(Cl)c1 (centres unmarked) [Example 201, 2-[4-[4-[4-[[5-[1-[5-(2-aminoethylamino)-2-pyridyl]-3-(trifluoromethyl)pyrazol-4-yl]-1-methyl-imidazole-2-carbonyl]amino]-2-chloro-benzoyl]piperazine-1-carbonyl]-1-methyl-piperidin-1-ium-1-yl]acetate] — 1.8-fold higher, 682 nM
- Cn1c(-c2cn(-c3ccc(N4CC[C@H](N)C4)cn3)nc2C(F)(F)F)cnc1C(=O)Nc1ccc(C(=O)N2CCN(C(=O)[C@H]3CC[N@+](CC(=O)O)(CC4CNC4)CC3)CC2)c(Cl)c1 [Example 202, cis-2-[4-[4-[4-[[5-[1-[5-[(3S)-3-aminopyrrolidin-1-yl]-2-pyridyl]-3-(trifluoromethyl)pyrazol-4-yl]-1-methyl-imidazole-2-carbonyl]amino]-2-chloro-benzoyl]piperazine-1-carbonyl]-1-(azetidin-3-ylmethyl)piperidin-1-ium-1-yl]acetic acid;formate] — 1.6-fold lower, 231 nM
